The target of one data set is TRPM8 (Homo sapiens, UniProt Q7Z2W7). The data set can be described thus: Whole-cell patch-clamp electrophysiology, menthol-evoked TRPM8 currents in HEK-293 cells transiently transfected with human TRPM8. It is filed as cell-based. How it is done: HEK-293 Cell culture. Human embryonic kidney (HEK) 293 cells (ATCC CRL-1573) were cultured in growth medium comprising 90% Dulbecco's modified Eagle's medium, 10% fetal bovine serum, 100 U·mL-1 penicillin-streptomycin, and 2 mM L-glutamine (Gibco). Cells were cultured in 35 mm polystyrene dishes (Falcon) at 37° C. in the presence of 5% CO2. Cells were transiently transfected with human TRPM8 in a pIRES2 plasmid containing EGFP as a reporter. This plasmid expresses bicistronic mRNA with an internal ribosome entry site (IRES) positioned between the TRPM8 gene and the fluorescent protein reporter gene such that the reporter is not covalently fused to TRPM8. […]
Whole-cell patch-clamp electrophysiology. […] Osmolality was measured using a Vapro 5600 vapor pressure osmometer (Wescor). […] Pipettes had resistances of 2-5 MO as measured in the extracellular solution. […] Current response from each cell was measured under each concentration of Compound 14. Only one cell was measured per cover slip to prevent confounding effects of previous exposure to menthol and Compound 14.
Data analysis. For each cell, current magnitude at each concentration of Compound 14 was normalized by dividing by the maximum current measured at 500 μM menthol and without the antagonist. Normalized currents from six cells were averaged at each concentration of antagonist, and the standard error of the mean was calculated at each point. […]

In the next data set the target is human TRPA1 (Homo sapiens, UniProt O75762). The data set can be described thus: TRPA1 agonist and antagonist Ca2+ flux assay (FLIPR, Fluo-8) in HEK293 cells stably expressing human TRPA1. Format: cell-based. The note with it: for hTRPA1 % Activation (n = 3-5): normalized to Emax of AITC (300 μM).
Data set [1] can be described thus: Stability in liver microsomes. It is filed as in vitro ADME. The following applies: mouse liver microsomes, 1 μM, NADPH. On the procedure: Stability in liver microsomes. Male CD-1 mouse liver microsomes (Lot#1710069) were purchased from XenoTech. The reaction mixture, minus NADPH, was prepared as described below. Compound 14 was added into the reaction mixture at a final concentration of 1 μM. The control compound, testosterone, was run simultaneously with Compound 14 in a separate reaction. An aliquot of the reaction mixture (without cofactor) was equilibrated in a shaking water bath at 37° C. for 3 minutes. The reaction was initiated by the addition of the cofactor, and the mixture was incubated in a shaking water bath at 37° C. Aliquots (100 μL) were withdrawn at 0, 10, 20, 30, and 60 minutes. Compound 14 and testosterone samples were immediately combined with 400 μL of ice-cold 50/50 acetonitrile (ACN)/H2O containing 0.1% formic acid and internal standard to terminate the reaction. The samples were then mixed and centrifuged to precipitate proteins. All samples were assayed by LC-MS/MS using electrospray ionization. […] are compared to the PARR at time 0 to determine the percent remaining at each time point. Half-lives and intrinsic clearance were calculated using GraphPad software, fitting to a single-phase exponential decay equation.
In vitro metabolic stability. Compound 14 was evaluated for metabolic stability in mouse liver microsomes by Absorption Systems (Exton, Pa.), by determining the percent remaining at 0, 10, 20, 30 and 60 minutes when incubated with mouse liver microsomes in the presence of NADPH. The half-life (t1/2) and in vitro intrinsic clearance (CLint) of Compound 14 was calculated, in addition to the control (testosterone).

Data set [2] relates to icilin-induced wet-dog shakes (WDS) in ICR (CD1) mice. The data set can be described thus: Wet-dog shakes (WDS) assay, icilin-induced. Format: in vivo, mouse.
[3] abbreviates: HEK293, read-out: hTRPA1 % Inhibition (n = 3).

SMILES strings stand for the structures.

Sequence of human TRPA1 (O75762 whole entry): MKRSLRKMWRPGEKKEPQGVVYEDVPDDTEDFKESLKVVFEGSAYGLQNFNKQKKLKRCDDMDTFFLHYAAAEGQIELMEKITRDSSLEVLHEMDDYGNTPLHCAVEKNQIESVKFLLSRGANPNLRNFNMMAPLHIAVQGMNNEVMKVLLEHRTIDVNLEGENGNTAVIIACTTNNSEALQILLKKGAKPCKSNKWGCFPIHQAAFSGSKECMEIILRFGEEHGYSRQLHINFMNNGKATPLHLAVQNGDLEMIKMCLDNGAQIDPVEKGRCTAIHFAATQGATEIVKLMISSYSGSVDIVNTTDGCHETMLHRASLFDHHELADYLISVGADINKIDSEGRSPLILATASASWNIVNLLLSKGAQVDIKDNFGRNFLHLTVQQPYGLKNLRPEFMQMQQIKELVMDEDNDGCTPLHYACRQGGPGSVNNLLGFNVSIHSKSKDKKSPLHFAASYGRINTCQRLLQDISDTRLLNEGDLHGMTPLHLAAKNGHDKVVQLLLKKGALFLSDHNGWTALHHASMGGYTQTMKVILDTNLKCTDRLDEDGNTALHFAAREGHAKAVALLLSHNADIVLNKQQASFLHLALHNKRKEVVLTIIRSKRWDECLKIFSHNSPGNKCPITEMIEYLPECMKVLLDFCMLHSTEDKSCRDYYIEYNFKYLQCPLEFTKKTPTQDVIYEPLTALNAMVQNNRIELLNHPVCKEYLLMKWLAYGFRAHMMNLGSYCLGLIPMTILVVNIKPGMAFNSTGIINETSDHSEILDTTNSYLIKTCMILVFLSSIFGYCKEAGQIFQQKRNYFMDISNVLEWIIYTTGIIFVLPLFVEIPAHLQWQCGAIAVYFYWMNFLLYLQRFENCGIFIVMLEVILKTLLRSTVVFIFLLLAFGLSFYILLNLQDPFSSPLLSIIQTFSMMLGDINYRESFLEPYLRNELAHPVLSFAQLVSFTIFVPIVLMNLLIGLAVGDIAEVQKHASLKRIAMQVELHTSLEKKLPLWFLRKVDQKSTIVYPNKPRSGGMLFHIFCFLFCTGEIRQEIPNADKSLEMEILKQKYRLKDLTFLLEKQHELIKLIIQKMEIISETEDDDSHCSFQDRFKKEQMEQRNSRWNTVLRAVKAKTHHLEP
Sequence of TRPM8 (Q7Z2W7 whole entry, the tested form may be a part): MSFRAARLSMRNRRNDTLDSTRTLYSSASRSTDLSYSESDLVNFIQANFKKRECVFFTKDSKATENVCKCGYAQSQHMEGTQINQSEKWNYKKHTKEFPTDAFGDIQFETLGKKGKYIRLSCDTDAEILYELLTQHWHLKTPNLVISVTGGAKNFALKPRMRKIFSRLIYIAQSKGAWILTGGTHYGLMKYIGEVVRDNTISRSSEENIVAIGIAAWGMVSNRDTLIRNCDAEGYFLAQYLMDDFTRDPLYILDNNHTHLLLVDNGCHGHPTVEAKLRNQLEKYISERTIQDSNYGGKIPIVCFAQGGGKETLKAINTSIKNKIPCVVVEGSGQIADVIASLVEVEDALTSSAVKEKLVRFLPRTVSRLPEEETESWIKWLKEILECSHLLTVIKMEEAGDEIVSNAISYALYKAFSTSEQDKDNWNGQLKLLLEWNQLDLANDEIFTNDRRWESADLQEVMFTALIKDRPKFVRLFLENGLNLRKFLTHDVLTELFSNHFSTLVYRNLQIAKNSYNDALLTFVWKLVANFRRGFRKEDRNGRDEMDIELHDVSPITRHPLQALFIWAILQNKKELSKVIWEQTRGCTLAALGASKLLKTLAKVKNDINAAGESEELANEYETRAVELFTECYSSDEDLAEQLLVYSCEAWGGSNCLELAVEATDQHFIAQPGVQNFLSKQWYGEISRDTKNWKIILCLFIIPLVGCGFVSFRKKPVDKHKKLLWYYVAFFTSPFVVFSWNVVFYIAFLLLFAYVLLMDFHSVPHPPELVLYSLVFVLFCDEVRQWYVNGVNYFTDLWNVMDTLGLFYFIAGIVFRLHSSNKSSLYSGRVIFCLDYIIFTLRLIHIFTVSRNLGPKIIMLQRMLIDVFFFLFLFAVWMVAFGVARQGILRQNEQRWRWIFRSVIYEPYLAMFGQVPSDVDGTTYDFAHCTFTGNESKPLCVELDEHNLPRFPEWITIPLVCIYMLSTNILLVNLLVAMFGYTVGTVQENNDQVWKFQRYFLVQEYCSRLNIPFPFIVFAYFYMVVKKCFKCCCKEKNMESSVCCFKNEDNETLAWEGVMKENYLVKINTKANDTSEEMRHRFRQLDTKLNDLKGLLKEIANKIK

With `O=C(NC1CCC2(CCCC2)CC1)c1ccc(-c2ccccc2)cc1` [Compound 14, N-(spiro[4.5]decan-8-yl)-[1,1′-biphenyl]-4-carboxamide], the “antagonist activity relative to a tryptamine-based antagonist in the same assay” value on TRPM8 (patch clamp) turned out to be 6 fold. Further, at TRPM8 (whole-cell patch clamp, +80 mV, 500 μM menthol, n=6 cells, read-out: IC50, inhibition of menthol-evoked TRPM8 currents), the IC50 was determined as 0.064 ± 0.002 µM. In addition, the inhibition at 0.003 µM at human TRPA1 (setting [3]) was -6 ± 5%. The inhibition at 0.03 µM on human TRPA1 (setting [3]) was -3 ± 2%. Further, the “effect on hTRPA1-mediated responses (intrinsic and antagonist activity)” value on human TRPA1 (at concentrations 13- to 25-fold higher than hTRPM8 IC50) is “do not affect”. Also, the “selectivity for TRPM8 vs. TRPA1” value at human TRPA1 (from FLIPR single-point assays) is 13 fold. The “hTRPA1 % Activation (n = 3-5)” value at human TRPA1 (tested at 3 nM) is recorded as −0.8 ± 0.4%; at human TRPA1 (tested at 30 nM), 0.1 ± 1.2%. Further, the “% Remaining of Initial (n = 1), 0 min” value in data set [1] (0 min) was determined as 100%. Moreover, the “% Remaining of Initial (n = 1), 10 min” value in data set [1] (10 min) is listed as 78%. For the same compound, in data set [1] (20 min), the “% Remaining of Initial (n = 1), 20 min” value stood at 57%. In addition, the “% Remaining of Initial (n = 1), 30 min” value in data set [1] (30 min) worked out at 47%. In addition, the “% Remaining of Initial (n = 1), 60 min” value in data set [1] (60 min) was found to be 31%. In data set [2] (50 mg/kg s.c., gabapentin 25 mg/kg s.c.), the “inhibition of WDS at the highest dose compared with gabapentin” value was “efficacy comparable to that observed with a standard analgesic dose of gabapentin”. In addition, the “effect on icilin-induced wet-dog shakes” value in data set [2] (1, 30 and 50 mg/kg s.c. 30 minutes before icilin (10 mg/kg i.p.)) was “marked, dose-dependent antinociceptive behavior”.

These data come from US20220313629A1, “TRANSIENT POTENTIAL MELASTATIN 8 (TRPM8) ANTAGONISTS AND RELATED METHODS” (MARSHALL UNIVERSITY RESEARCH CORPORATION, priority 2019, published 2022).
